# According to patent publication EP4685136A1, “AMINO LIPID, AND LIPID NANOPARTICLES AND USE THEREOF” (Shenzhen MagicRNA Biotechnology Co., Ltd., priority 2023, dated 2024):
# Experiments:
# primary BMDC cells = assay: Transfection of Luc mRNA lipid nanoparticles on primary BMDC cells (ONE-Glo luciferase readout); assay type: cell-based, C57BL/6 mice; conditions: expression intensity of Luc mRNA on BMDCs; 10 µL LNP per well, 20,000 cells per well, 12 hours
# Experimental: Animal preparation: 6-week-old female C57BL/6 mice weighing about 20 g were selected and raised in an SPF-grade feeding room. Animal experiments were conducted strictly in accordance with the guidelines of the National Institutes of Health and animal ethics requirements.
# Cell acquisition: C57BL/6 mice were sacrificed by cervical dislocation and immersed in 75% alcohol for 5 minutes for disinfection. The thigh and tibia of the mice were dissected and the attached muscles were removed to expose the bone. The bone marrow in the tibia was blown out with a 1 mL syringe filled with PBS. The obtained bone marrow was dispersed by blowing and filtered through a 50 µm filter mesh to remove impurities. Red blood cell lysis solution (3-4 mL) was added to the obtained filtrate and allowed to stand for 5 minutes. Then, the supernatant was removed by centrifugation at 800 g for 5 minutes. The obtained cells were placed in 1640 culture medium (containing 10% fetal bovine serum, 20 ng/mL GMCSF, 10 ng/mL IL4) for being resuspended, and inoculated into 6-well plates at a density of 100,000 cells/mL of culture medium. The plates were placed in a cell culture incubator containing 5% CO2 at 37°C, and the medium was half-changed every 2 days. On the seventh day, the suspended cells and loosely adherent cells were collected and inoculated into 96-well all-white ELISA plates at a density of 20,000 cells per well, with a culture medium volume of 100 µL.
# Cell transfection: the lipid nanoparticles encapsulating luciferase mRNA were added to a 96-well all-white ELISA plate with spreaded primary cells, and the volume of mRNA lipid nanoparticles added to each well was controlled to be 10 µL. Then, the plate was placed in an incubator with 5% CO2 concentration at 37°C for 12 hours.
# Transfection efficiency detection: 20 µL of substrate ONE-Glo™ Luciferase was added to each well of a 96-well all-white ELISA plate, and the assay was performed using a multifunctional microplate reader (Biorek SynergyH1) after 1 min. The expression intensity of Luc mRNA transfected on BMDCs by lipid nanoparticles (LNPs) composed of representative amino lipid compounds is shown in Table 2, with DLin-MC3 and SM0102 as controls. Table 2 Expression intensity of transfection of representative amino lipid compounds on BMDCs
# [1] = Encapsulation efficiency of Luc-mRNA lipid nanoparticles (Quant-iT RiboGreen RNA Kit); assay type: physicochemical; conditions: LNP of amino lipid:DSPC:cholesterol:DMG-PEG2000 47.5:10:41:1.5 with Luc-mRNA; lipid to mRNA mass ratio about 40:1
# Experimental: (§1) The amino lipid compound of the present invention (or DLin-MC3 or SM-102 (both purchased from AVT (Shanghai) Pharmaceutical Technology Co., Ltd.)), phospholipid lipid (DSPC), cholesterol, and PEGylated lipid (DMG-PEG2000) were mixed and dissolved in anhydrous ethanol at a molar ratio of 47.5:10:41:1.5. The resulting ethanol solution and citric acid buffer (50 mM, pH = 4.0) dissolved with Luc-mRNA (TriLink) were mixed in a microfluidic chip at a volume ratio of 1:3 using a microfluidic preparation system to prepare a crude solution of lipid nanoparticles, which was then dialyzed in 1X PBS at 4°C for 6 h using a dialysis cassette (Fisher, MWCO 20,000). The product was filtered through a 0.22 µm microporous filter membrane before use. The mass ratio of the amino lipid compound to luciferase mRNA (Luc mRNA) was about 40:1.
# The encapsulation efficiency was determined according to the standard procedure of the Quant-iT RiboGreen RNA Kit. Table 1 Characterization data of LNPs prepared using representative amino lipid compounds
# [2] = Particle size and PDI of Luc-mRNA lipid nanoparticles (Nano-ZS ZEN3600, Malvern); assay type: physicochemical; conditions: LNP of amino lipid:DSPC:cholesterol:DMG-PEG2000 47.5:10:41:1.5 with Luc-mRNA; lipid to mRNA mass ratio about 40:1
# Experimental: as §1
# The particle size and PDI (polydispersity index) of the prepared lipid nanoparticles were measured by Nano-ZSZEN3600 (Malvern). 20 µL of lipid nanoparticle (LNP) solution was taken for particle size measurement, and cycled three times with each cycle for 30 s.
Structure (SMILES),Encapsulation efficiency (%) [1] [%],Average particle size (nm) [2] [nm],PDI [2],Luminescence intensity (primary BMDC cells)
CCCCCCCCCCC(COC(=O)CCCCC)OC(=O)CCCCCN(CCCCCC(=O)OC(CCCCCCCCCC)COC(=O)CCCCC)CCCOC(=O)C1CCN(C)CC1 (stereo not shown) [E12LA6B6O3A7],96.5,110,0.05,7.3 E+04
CCCCCCCCCCC(COC(=O)CCCCC)OC(=O)CCCCCN(CCCCCC(=O)OC(CCCCCCCCCC)COC(=O)CCCCC)CCCOC(=O)CCN1CCN(C)CC1 (stereo not shown) [E12LA6B6O3A2],–,–,–,4.0E+05
CCCCCCC(COC(=O)CCCCC)OC(=O)CCCCCN(CCCCCC(=O)OC(CCCCCC)COC(=O)CCCCC)CCCOC(=O)CCCCCCN(C)C (stereo not shown) [E8LA6B6O3A6],97.6,108,0.07,2.8E+05
CCCCCCCCCCC(COC(=O)CCCCC)OC(=O)CCCCCN(CCCCCC(=O)OC(CCCCCCCCCC)COC(=O)CCCCC)CCCOC(=O)CCN1CCCCC1 (stereo not shown) [E12LA6B6O3A8],95.3,124,0.06,1.9 E+05
CCCCCCCCCCCC(=O)OCC(CCCCCC)OC(=O)CCCCCN(CCCO)CCCCCC(=O)OC(CCCCCC)COC(=O)CCCCCCCCCCC (stereo not shown) [E8LA12B6O3],95.67,72,0.09,–
CCCCCCCCCCC(COC(=O)CCCCC)OC(=O)CCCCCN(CCCCCC(=O)OC(CCCCCCCCCC)COC(=O)CCCCC)CCCOC(=O)CCN(C)C (stereo not shown) [E12LA6B6O3A4],90.7,80,0.03,–
CCCCCCCCCCC(COC(=O)CCCCC)OC(=O)CCCCCN(CCCCCC(=O)OC(CCCCCCCCCC)COC(=O)CCCCC)CCCOC(=O)CCCN1CCN(C)CC1 (stereo not shown) [E12LA6B6O3A3],94.6,53,0.07,–

# Now from value to compound, other results behind:
Encapsulation efficiency (%) [1] [%],Average particle size (nm) [2] [nm],PDI [2],Structure (SMILES),Luminescence intensity (primary BMDC cells)
98.9,120,0.06,CCCCCCCCCCC(CCCOC(=O)CCCCC)OC(=O)CCCCCN(CCCO)CCCCCC(=O)OC(CCCCCCCCCC)CCCOC(=O)CCCCC (stereo not shown) [K4LA6B6O3],4.9 E+05
98.4,130,0.04,CCCCCCCCCCCC(=O)OCC(CCCCCCCCCC)OC(=O)CCCCCN(CCCC#N)CCCCCC(=O)OC(CCCCCCCCCC)COC(=O)CCCCCCCCCCC (stereo not shown) [E12LA12B6O31],9.6 E+04
91.8,117,0.08,CCCCCCCCCCCC(=O)OCC(CCCCCCCCCC)OC(=O)CCCCCN(CCCCCC(=O)OC(CCCCCCCCCC)COC(=O)CCCCCCCCCCC)CCCC(=O)NCCCN(C)C (stereo not shown) [E12LA12B6O30A10],4.1E+05
90.3,168,0.06,CCCCCCCCCCC(CNC(=O)CCCCC)NC(=O)CCCCCN(CCCO)CCCCCC(=O)NC(CCCCCCCCCC)CNC(=O)CCCCC (stereo not shown) [E12N2LA6B6O3],–
94.4,83,0.01,CCCCCCCCCCC(COC(=O)CCCCC)OC(=O)CCCCCN(CCCCCC(=O)OC(CCCCCCCCCC)COC(=O)CCCCC)CCN1CCCCC1 (stereo not shown) [E12LA6B6O13],–
95.2,90,0.12,CCCCCCCCCCC(COC(=O)CCCCC)OC(=O)CCCCCN(CCCCCC(=O)OC(CCCCCCCCCC)COC(=O)CCCCC)CCN1CCC(O)CC1 (stereo not shown) [E12LA6B6O15],–
98.2,127,0.03,CCCCCCCCCCCC(=O)OCC(CCCCCCCCCC)OC(=O)CCCCCN(CCCCCC(=O)OC(CCCCCCCCCC)COC(=O)CCCCCCCCCCC)CCCC(=O)O (stereo not shown) [E12LA12B6O30],–
